Measurements published in the NIST ThermoML archive (doi:10.1021/acs.jced.5b01023).

How the values were obtained:
[1] = for viscosity / mass density: 101 kPa, Liquid; for viscosity: Capillary tube (Ostwald / Ubbelohde) method; for mass density: Vibrating tube method
[2] = refractive index (Na D-line) (dimensionless); conditions: 101 kPa, Liquid, Standard Abbe refractometry
[3] = refractive index (Na D-line) (dimensionless); xn = mol fraction of the nth substance listed; conditions: 101 kPa, Liquid, Standard Abbe refractometry, x2 = 0
[4] = xn = mol fraction of the nth substance listed; conditions: x2 = 0; for viscosity / mass density: 101 kPa, Liquid; for viscosity: Capillary tube (Ostwald / Ubbelohde) method; for mass density: Vibrating tube method

CC(C)O [propan-2-ol]
[1], Wilhelmy plates
Conditions | surface tension liquid-gas [mN/m]
288.15 K | 21.6
298.15 K | 21.2
308.15 K | 20.5
318.15 K | 19.6
328.15 K | 18.7
338.15 K | 17.4

Conditions | mass density, [1] [kg/m3] | refractive index, [2] | viscosity, [1] [mPa·s]
288.15 K | 789.18 | 1.37933 | 2.752
298.15 K | 780.84 | 1.37517 | 2.018
308.15 K | 772.23 | 1.37093 | 1.507
318.15 K | 763.27 | 1.36643 | 1.15
328.15 K | 753.89 | 1.36173 | 0.895
338.15 K | 744.02 | 1.35682 | 0.704

CO [methanol]
[1], Wilhelmy plate
Conditions | surface tension liquid-gas [mN/m]
278.2 K | 23.8
288.2 K | 23.6
298.2 K | 22.7
308.2 K | 21.9
318.2 K | 21

CCCO [propan-1-ol] + CC(=O)[O-].CCn1cc[n+](C)c1
Conditions | mass density, [4] [kg/m3] | refractive index, [3] | viscosity, [4] [mPa·s]
288.15 K | 807.55 | 1.38694 | 2.506
298.15 K | 799.56 | 1.38303 | 1.952
308.15 K | 791.46 | 1.37914 | 1.545
318.15 K | 783.2 | 1.375 | 1.238
328.15 K | 774.72 | 1.37075 | 1.006
338.15 K | 765.98 | 1.36667 | 0.824
348.15 K | 756.91 | 1.36201 | 0.684

[4], Wilhelmy plates
Conditions | surface tension liquid-gas [mN/m]
288.15 K | 23.9
298.15 K | 23.4
308.15 K | 22.4
318.15 K | 22
328.15 K | 20.9
338.15 K | 19.7
348.15 K | 19

CO [methanol] + CC(=O)[O-].CCn1cc[n+](C)c1
[4], Wilhelmy plate
Conditions | surface tension liquid-gas [mN/m]
278.2 K | 23.8
288.2 K | 23.6
298.2 K | 22.7
308.2 K | 21.9
318.2 K | 21

CCCO [propan-1-ol]
[1], Wilhelmy plates
Conditions | surface tension liquid-gas [mN/m]
288.15 K | 23.9
298.15 K | 23.4
308.15 K | 22.4
318.15 K | 22
328.15 K | 20.9
338.15 K | 19.7
348.15 K | 19

Conditions | mass density, [1] [kg/m3] | refractive index, [2] | viscosity, [1] [mPa·s]
288.15 K | 807.55 | 1.38694 | 2.506
298.15 K | 799.56 | 1.38303 | 1.952
308.15 K | 791.46 | 1.37914 | 1.545
318.15 K | 783.2 | 1.375 | 1.238
328.15 K | 774.72 | 1.37075 | 1.006
338.15 K | 765.98 | 1.36667 | 0.824
348.15 K | 756.91 | 1.36201 | 0.684
